Measurements from PubChem BioAssay (NCI).
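48-hour exposure; five concentrations; linearly interpolated endpoints. Definition used: TGI = concentration required for complete inhibition of growth.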

What was measured:
Assay in all cases: NCI tumour cell line growth inhibition, 48 h
[1] = system: MDA-N
[2] = system: BT-549 breast
[3] = system: COLO 205 colon
[4] = system: LOX IMVI melanoma
[5] = system: PC-3 prostate
[6] = system: HCT-116 colon
[7] = system: EKVX NSCLC
[8] = system: CCRF-CEM leukemia
[9] = system: RXF 393 renal
[10] = system: HOP-92 NSCLC

SMILES	TGI [1]	TGI [2]	TGI [3]	TGI [4]	TGI [5]	TGI [6]	TGI [7]	TGI [8]	TGI [9]	TGI [10]
O=C1CSC(c2cccs2)N1c1nc2cc3sc(N4C(=O)CSC4c4cccs4)nc3cc2s1 (configuration not stated)	> 50 µM	> 50 µM	3.18 µM	> 50 µM	> 50 µM	> 50 µM	> 50 µM	> 50 µM	> 50 µM	> 50 µM
Cn1c2ccccc2n2c(=O)c3cc([N+](=O)[O-])ccc3c(C#N)c12	> 100 µM	> 100 µM	> 100 µM	> 100 µM	> 100 µM	> 100 µM	> 100 µM	> 100 µM	> 100 µM	–
NC1CNC(=O)c2c(Cl)sc(Cl)c21 (configuration not stated)	> 100 µM	–	> 100 µM	> 100 µM	> 100 µM	> 100 µM	> 100 µM	–	> 100 µM	> 100 µM
O=c1c(-c2ccc(Cl)cc2)nnc2n(Cc3ccccc3)c3ccccc3n12	> 100 µM	57.2 µM	> 100 µM	> 100 µM	> 100 µM	> 100 µM	> 100 µM	> 100 µM	40.2 µM	42.6 µM
CCOC(=O)C(NC(=O)CC(C)C)(N1CCN(c2cc3c(cc2F)c(=O)c(C(=O)O)cn3C2CC2)CC1)C(F)(F)F (configuration not stated)	52.3 µM	39.1 µM	30.3 µM	35.5 µM	63.7 µM	56.2 µM	92.8 µM	14 µM	35.8 µM	25.3 µM
CCOc1cc(-c2nc3ccccn3c2/N=C/c2cc(Br)ccc2O)ccc1O	> 100 µM	> 100 µM	> 100 µM	> 100 µM	73.3 µM	> 100 µM	76.6 µM	> 100 µM	32 µM	64.5 µM
O=c1[nH]nc(-c2ccccc2)c2[nH]c(-c3ccccc3)cc12	> 100 µM	> 100 µM	> 100 µM	> 100 µM	–	> 100 µM	> 100 µM	> 100 µM	> 100 µM	> 100 µM
Brc1ccc2c(-c3csc(-c4c[nH]c5ccc(Br)cc45)n3)c[nH]c2c1	16.6 µM	27.7 µM	> 26.7 µM	4.16 µM	19.8 µM	13.9 µM	7.15 µM	> 29.2 µM	9.55 µM	9.27 µM
O=C(CSc1n[nH]c(=O)[nH]c1=O)NNC(=O)c1cccc2nc3ccccc3nc12	97.5 µM	83.7 µM	> 100 µM	> 100 µM	> 100 µM	> 100 µM	> 100 µM	> 100 µM	> 100 µM	> 100 µM
O=C(Cc1ccc([N+](=O)[O-])cc1)OCC#CCOC(=O)Cc1ccc([N+](=O)[O-])cc1	> 10 µM	> 10 µM	–	> 10 µM	> 10 µM	–	> 10 µM	> 10 µM	> 10 µM	> 10 µM
Cc1cc2ncc3c(=O)n(NS(=O)(=O)c4ccc(N)cc4)ccc3n2n1	> 100 µM	> 100 µM	> 100 µM	> 100 µM	> 100 µM	> 100 µM	> 100 µM	> 100 µM	–	> 100 µM
COc1cc(I)c2c3c1OC1C34CCN(C)C(C2)C4=CC(I)C1(OC)OC (configuration not stated)	48 µM	48.4 µM	45.2 µM	42.3 µM	82.1 µM	60.6 µM	> 100 µM	26.8 µM	38.2 µM	45.6 µM
FC(F)(F)c1ccc2nc3n(c2c1)C(c1c(Cl)cccc1Cl)SC3 (configuration not stated)	24.3 µM	50.3 µM	–	> 100 µM	31.5 µM	22.4 µM	28.6 µM	–	30.9 µM	17.7 µM
NC(=O)c1cc2ccccc2o/c1=N/O	> 100 µM	> 100 µM	> 100 µM	> 100 µM	> 100 µM	> 100 µM	> 100 µM	> 100 µM	> 100 µM	> 100 µM
Brc1cccc(N=NN2CCCC2)c1	> 100 µM	> 100 µM	> 100 µM	> 100 µM	> 100 µM	> 100 µM	> 100 µM	> 100 µM	> 100 µM	> 100 µM
O=[N+]([O-])c1ccc(NC(=S)N=Nc2c(O)[nH]c3ccc(Br)cc23)cc1	23.5 µM	11.1 µM	56.5 µM	22.4 µM	20.7 µM	18 µM	–	–	26.5 µM	22.7 µM
OC1(c2ccc(Cl)cc2)c2ccc3ccccc3c2C2=N[C@H]3CCCC[C@@H]3N21 (some centres not stated)	> 100 µM	–	> 100 µM	10.5 µM	51.2 µM	20.5 µM	24 µM	79.9 µM	20.8 µM	77.3 µM
O=C(N/N=C/c1ccco1)c1cc(I)cc(I)c1O	> 50 µM	> 50 µM	45.6 µM	> 50 µM	> 50 µM	> 50 µM	37.2 µM	> 50 µM	> 50 µM	> 50 µM
c1ccc2c3c(c(N4CCOCC4)nc2c1)CCCC3	> 100 µM	> 100 µM	46.5 µM	> 100 µM	> 100 µM	> 100 µM	63.8 µM	> 100 µM	46.8 µM	> 100 µM
CCOC(=O)/C(C#N)=N\Nc1ccc(-n2c(C)nc3ccccc3c2=O)cc1	> 100 µM	> 100 µM	> 100 µM	> 100 µM	> 100 µM	> 100 µM	> 100 µM	> 100 µM	–	> 100 µM
CC(C)(C)c1cc(/C=C(\C#N)C(=O)NCCO)cc(C(C)(C)C)c1O	48.7 µM	71.1 µM	37.2 µM	53.9 µM	46.7 µM	32.7 µM	70.4 µM	46.3 µM	57.6 µM	> 100 µM
